PMC12123727 (BMC Cancer, 2025)
Read-outs that look alike come from different tables or passages of the source.

Assays:
[1] = Phase 1 plasma pharmacokinetics; type: in vivo, human; conditions: for increase of exposure (plasma concentration) with dose: dose range 40–80 mg BID; for AUC(0-t) / AUC(0-inf) / Cmax / half-life / Tmax / MRT last: human, plasma; for AUC(0-t): AUC0-t; for AUC(0-t) / AUC(0-inf) / Cmax: Mean ± SD; for AUC(0-inf): AUC0-∞; for half-life: T1/2, Median; for Tmax: Median; for MRT last: po
r/r B cell NHL = test: Phase 1 efficacy; type: in vivo, human
[2] = test system: Relapsed/Refractory Lymphoma; conditions: cited from earlier work
[3] = test system: r/r B cell NHL or chronic lymphocytic leukemia; conditions: cited from earlier work
advanced solid tumor = conditions: combined with pazopanib, follow-up, cited from earlier work
[4] = C1D7 compared to C1D1, 40–80 mg BID
[5] = oral, 40 mg, abexinostat continuous administration (BID, 4-h interval) on C1D1, 40 mg (n = 4)
[6] = oral, 40 mg, abexinostat continuous administration (BID, 4-h interval) on C1D7, 40 mg (n = 4)
[7] = oral, 60 mg, abexinostat continuous administration (BID, 4-h interval) on C1D1, 60 mg (n = 3)
[8] = oral, 60 mg, abexinostat continuous administration (BID, 4-h interval) on C1D7, 60 mg (n = 3)
[9] = oral, 80 mg, abexinostat continuous administration (BID, 4-h interval) on C1D1, 80 mg (n = 4)
[10] = oral, 80 mg, abexinostat continuous administration (BID, 4-h interval) on C1D7, 80 mg (n = 4)
[11] = PCYC-0403, r/r FL patients (n = 14)

## CN(C)Cc1c(C(=O)NCCOc2ccc(C(=O)NO)cc2)oc2ccccc12 [abexinostat, Abexinostat]
[1]; [4]
  average accumulation ratio for Cmax (RA-Cmax): 0.94–1.48
  average accumulation ratio for the AUC (RA-AUC): 1.16–1.52
[1]
  increase of exposure (plasma concentration) with dose: approximately dose-proportional
[1]; listed as Abexinostat
  increase of exposure (plasma concentration) with dose: dose-proportional
[1]; [5]
  AUC(0-t): 339 ± 90.9 ng·h/mL
  AUC(0-inf): 361 ± 88.3 ng·h/mL
  Cmax: 98.1 ± 27.6 ng/mL
  half-life: 3.69 h
  Tmax: 1 h
[1]; [6]
  AUC(0-t): 463 ± 32.5 ng·h/mL
  AUC(0-inf): 491 ± 43.7 ng·h/mL
  Cmax: 107 ± 16.3 ng/mL
  half-life: 4.84 h
  Tmax: 1 h
[1]; [7]
  AUC(0-t): 521 ± 60.6 ng·h/mL
  AUC(0-inf): 563 ± 69.6 ng·h/mL
  Cmax: 115 ± 24.2 ng/mL
  half-life: 6.28 h
[1]; [8]
  AUC(0-t): 600 ± 53.8 ng·h/mL
  AUC(0-inf): 656 ± 72 ng·h/mL
  Cmax: 104 ± 26.9 ng/mL
  half-life: 6.53 h
  Tmax: 0.48 h
[1]; oral, 60 mg, abexinostat continuous administration (BID, 4-h interval) on C1D1, 60 mg (n = 3), abexinostat value footnoted: 0.5 h after second dose
  Tmax: 4.55 h
[1]; [9]
  AUC(0-t): 603 ± 104 ng·h/mL
  AUC(0-inf): 625 ± 116 ng·h/mL
  Cmax: 128 ± 25.3 ng/mL
  half-life: 5.13 h
[1]; [10]
  AUC(0-t): 767 ± 140 ng·h/mL
  AUC(0-inf): 744 ± 132 ng·h/mL
  Cmax: 184 ± 27 ng/mL
  half-life: 5.03 h
  Tmax: 2.74 h
[1]; oral, 80 mg, abexinostat continuous administration (BID, 4-h interval) on C1D1, 80 mg (n = 4), abexinostat value footnoted: 0.97 h after second dose
  Tmax: 4.78 h
[1]; 40 mg
  MRT last: 2.8 h
[1]; 60 mg
  MRT last: 6.97 h
[1]; 80 mg
  MRT last: 3.47 h
[1]; on C1D7
  accumulation: slight accumulation
[1]; oral
  absorption: rapidly absorbed
r/r B cell NHL; FAS
  12-month PFS rate: 30.0%
  30-month PFS rate: 20.0%
  39-month OS rate: 64.8%
  duration of response (DoR): not reached
  median overall survival (OS): not reached
  median progression-free survival (PFS): 5.01 months
r/r B cell NHL; FAS, 4/10, all doses
  objective response rate (ORR): 40.0%
r/r B cell NHL; FAS, 6/10
  disease control rate (DCR): 60%
r/r B cell NHL; Patient 2, DLBCL, 40 mg BID, still on treatment
  PFS of the patient who achieved CR: over 30 months
r/r B cell NHL; at data cutoff November 30, 2023
  patients still alive: Seven patients
r/r B cell NHL; patients with FL
  median DoR: 7.82 months
  median PFS: 8.38 months
r/r B cell NHL; patients with FL, 3/6
  ORR: 50%
r/r B cell NHL; patients with FL, 5/6
  DCR: 83.3%
r/r B cell NHL; r/r DLBCL patients, 1/4
  DCR: 25%
  ORR: 25%
[2]; PCYC-0403, mantle cell lymphoma, 3/11
  ORR: 27.3%
[2]; PCYC-0403, mantle cell lymphoma
  median PFS: 3.9 months
[2]; [11]
  CR, patients: 1
  PR, patients: 8
[2]; PCYC-0403, r/r FL patients, 9/14
  ORR: 64.3%
[2]; PCYC-0403, r/r FL patients, 12/14
  DCR: 85.7%
[2]; PCYC-0403, r/r FL patients
  median PFS: 20.5 months
[3]; PCYC-0401, DLBCL
  median OS: 10.2 months
  median PFS: 2.8 months
[3]; PCYC-0401, FL
  median OS: not reached
  median PFS: 10.2 months
[3]; PCYC-0401, patients with DLBCL, 5/16
  ORR: 31%
[3]; PCYC-0401, patients with FL, 9/16
  ORR: 56%
Advanced solid tumor; range 39.8–133 +
  median duration of treatment in exceptional responders: 44.1 months
Advanced solid tumor
  time on treatment of one patient with RCC: > 11 years
